In brackets after ≈: the same amount, converted by molar mass. Counter-ions that a name gives are not always drawn.
What was measured:
[1] = Mouse urinary recovery of antibacterial agent; format: in vivo; conditions: urine, sc, 10 mg/kg s/c, parent antibacterial agent administered alone
Experimental: By way of comparison. the parent antibacterial agent of the compound of Example 2 (ie sodium salt of [-2-acetamido- ethenylthio]-6-(I-hydroxysulphonyloxyethyl)-7-oxo-l-azabicyclo[3.2.0]hept-2-ene-2-carboxylic acid) was administered together with the corresponding dipeptidase inhibitor (ie 2-isovaleramidobut-2-ene) in a 1:1 relationship. […] However, since the compound of Example 2 liberates an approximate ratio of 2:1 by weight of antibacterial agent to inhibitor, the compound of Example 2 makes much more efficient use of the dipeptidase inhibitor.

Enterobacter cloacae N1 = assay: Antibacterial activity (mic); format: cell-based
Escherichia coli 0111 = assay: Antibacterial activity (mic); format: cell-based
Escherichia coli JT39 R+ = assay: Antibacterial activity (mic); format: cell-based
Escherichia coli ESS = assay: Antibacterial activity (mic); format: cell-based
Klebsiella aerogenes A = assay: Antibacterial activity (mic); format: cell-based
Proteus mirabilis 977 = assay: Antibacterial activity (mic); format: cell-based
Proteus morganii 1580 = assay: Antibacterial activity (mic); format: cell-based; conditions: Morganella morganii
Proteus rettgeri WM16 = assay: Antibacterial activity (mic); format: cell-based; conditions: Providencia rettgeri
Pseudomonas aeruginosa A = assay: Antibacterial activity (mic); format: cell-based
[2] = test system: Pseudomonas aeruginosa Dalgleish; assay: Antibacterial activity (mic); format: cell-based
Bacillus subtilis A = assay: Antibacterial activity (mic); format: cell-based
[3] = test system: Staphylococcus aureus Oxford; assay: Antibacterial activity (mic); format: cell-based
[4] = test system: Staphylococcus aureus Russell; assay: Antibacterial activity (mic); format: cell-based
Streptococcus faecalis I = assay: Antibacterial activity (mic); format: cell-based; conditions: Enterococcus faecalis
[5] = test system: Serratia marcescens NEU3974; assay: Antibacterial activity (mic); format: cell-based
[6] = Effect of serum on antibacterial activity; format: cell-based
Escherichia coli E8 = assay: Antibacterial activity (mic); format: cell-based
Escherichia coli E96 R+ = assay: Antibacterial activity (mic); format: cell-based
Proteus mirabilis 13 = assay: Antibacterial activity (mic); format: cell-based
[7] = test system: Pseudomonas aeruginosa 11; assay: Antibacterial activity (mic); format: cell-based
Serratia marcescens US20 = assay: Antibacterial activity (mic); format: cell-based

SMILES | dose excreted [1] [%] | MIC (Enterobacter cloacae N1) [µg/mL] | MIC (Escherichia coli 0111) [µg/mL] | MIC (Escherichia coli JT39 R+) [µg/mL] | MIC (Escherichia coli ESS) [µg/mL] | MIC (Klebsiella aerogenes A) [µg/mL] | MIC (Proteus mirabilis 977) [µg/mL] | MIC (Proteus morganii 1580) [µg/mL] | MIC (Proteus rettgeri WM16) [µg/mL] | MIC (Pseudomonas aeruginosa A) [µg/mL] | MIC [2] [µg/mL] | MIC (Bacillus subtilis A) [µg/mL] | MIC [3] [µg/mL] | MIC [4] [µg/mL] | MIC (Streptococcus faecalis I) [µg/mL] | Effect of serum on activity [6] | MIC (Escherichia coli E8) [µg/mL] | MIC (Escherichia coli E96 R+) [µg/mL] | MIC [7] [µg/mL] | MIC (Serratia marcescens US20) [µg/mL] | other results
CC(=O)NC=CSC1=C(C(=O)O)N2C(=O)C(C(C)OS(=O)(=O)O)C2C1 (stereo not drawn) [(B), sodium salt of [-2-acetamido-ethenylthio]-6-(I-hydroxysulphonyloxyethyl)-7-oxo-l-azabicyclo[3.2.0]hept-2-ene-2-carboxylic acid] | 1.5 | – | – | – | – | – | – | – | – | – | – | – | – | – | – | – | – | – | – | – | –
C/C=C(\NC(=O)CC(C)C)C(=O)OCOC(=O)C1=C(Sc2ncccn2)C[C@@H]2[C@@H]([C@@H](C)O)C(=O)N12 (racemic) [Example 3, 2-Isovaleramidobut-2Z-enoyloxymethyl 5(R,S),6(S,R)-3-(pyrimidin-2-ylthio)-6-[l(R,S)-hydroxyethyl]-7-oxo-1-azabicyclo[3.2.0]hept-2-ene-2-carboxylate] | – | 25 (≈ 49.5 µM) | 6.2 (≈ 12.3 µM) | 3.1 (≈ 6.14 µM) | 1.6 (≈ 3.17 µM) | 3.1 (≈ 6.14 µM) | 12.5 (≈ 24.8 µM) | 25 (≈ 49.5 µM) | 25 (≈ 49.5 µM) | > 100 | > 100 | 0.8 (≈ 1.59 µM) | 0.8 (≈ 1.59 µM) | 0.8 (≈ 1.59 µM) | 50 (≈ 99.1 µM) | 10-20 fold | – | – | – | – | MIC [5]: 100 µg/mL (≈ 198 µM)
C/C=C(\NC(=O)CC(C)C)C(=O)OCOC(=O)C1=C(S/C=C/NC(C)=O)C[C@@H]2[C@H]([C@H](C)O)C(=O)N12 [Example 1, 2-Isovaleramidobut-2Z-enoyloxymethyl (5R,6R)-3-[(E)-2-acetamidoethenylthio]-6-[(S)-1-hydroxyethyl]-7-oxo-1-azabicyclo[3.2.0]hept-2-ene-2-carboxylate] | – | 6.2 (≈ 12.2 µM) | 0.8 (≈ 1.57 µM) | 25 (≈ 49.1 µM) | 0.2 (≈ 0.392 µM) | 6.2 (≈ 12.2 µM) | 3.1 (≈ 6.08 µM) | 25 (≈ 49.1 µM) | 6.2 (≈ 12.2 µM) | > 100 | 100 (≈ 196 µM) | 0.4 (≈ 0.785 µM) | 0.4 (≈ 0.785 µM) | 0.8 (≈ 1.57 µM) | 3.1 (≈ 6.08 µM) | 2-8 fold | 0.8 (≈ 1.57 µM) | 100 (≈ 196 µM) | 100 (≈ 196 µM) | 6.2 (≈ 12.2 µM) | MIC (Proteus mirabilis 13): 0.8 µg/mL (≈ 1.57 µM)
CC=C(NC(=O)CC(C)C)C(=O)OCOC(=O)C1=C(SC=CNC(C)=O)CC2C(C(C)OS(=O)(=O)O)C(=O)N12 [Example 2, Sodium salt of 2-Isovaleramidobut-2Z-en-oyloxymethyl (5R,6R)-3-[(E)-2-acetamidoethenylthio]-6-[(S)-l-hydroxysulphonyloxyethyl]-7-oxo-l-azabicyclo[3.2.0]hept 2-ene-2-carboxylate] | – | 3.1 | 3.1 | 1.6 | 1.6 | 0.4 | 3.1 | – | 0.8 | 100 | 100 | 1.6 | 1.6 | 3.1 | 50 | 2-4 fold | 6.2 | 12.5 | 100 | 6.2 | –
CC(=O)NC=CSC1=C(C(=O)O)N2C(=O)C(C(C)O)C2C1 [(A), Sodium (5R,6R)-3-[(E)-2-acetamidoethenylthio]-6-[(S)-1-hydroxyethyl]-7-axo-1-azabicyclo[3.2.0]hept-2-ene-2-carboxylate] | 0.3 | – | – | – | – | – | – | – | – | – | – | – | – | – | – | – | – | – | – | – | –

— EP0086590A1, “Antibacterial agents, their preparation and use” (priority 1982, dated 1983)
